Data set [1] concerns Candida albicans. In words: Anti-virulence activity against Candida albicans SC5314 assessed as inhibition of fungal filamentation by measuring reduction of hyphae formation in GlcNAc medium at 1.3 uM incubated for 3 to 5 days by stereomicroscopic analysis. Conditions: time 3-5 day. It counts as functional, organism-based.
Data set [2] relates to Candida albicans. In words: Anti-virulence activity against 53-75 RFP expressing cells of Candida albicans M137 in hind brain of zebra fish embryo disseminated candidiasis model assessed as inhibition of fungal filamentation by measuring reduction of hyphae formation in the hind brain at 10 uM treated at 1 hr post-infection and measured on day 4 post infection by fluorescence microscopy. The format is functional. Conditions: M137, 96 h, time 4 day.

In data set [3] the test system is Candida albicans. In words: Anti-virulence activity against Candida albicans SC5314 assessed as inhibition of fungal filamentation by measuring reduction in hyphae formation in GlcNAc medium upto 10 uM incubated for 3 to 5 days by stereomicroscopic analysis. It counts as functional, organism-based. To be noted: time 3-5 day.
The subject of data set [4] is Candida albicans. In words: Anti-virulence activity against Candida albicans SC5314 assessed as inhibition of fungal filamentation by measuring reduction of hyphae formation in YPS plus uridine medium at 1.3 uM incubated for 3 to 5 days by stereomicroscopic analysis. It counts as functional, organism-based. Conditions: time 3-5 day.
Data set [5] has as its system Candida albicans. In words: Anti-virulence activity against Candida albicans SC5314 assessed as inhibition of fungal filamentation by measuring reduction in hyphae formation in YPS medium upto 10 uM incubated for 3 to 5 days by stereomicroscopic analysis. It counts as functional, organism-based. Conditions: time 3-5 day.
Data set [6] relates to Candida albicans. In words: Anti-virulence activity against Candida albicans SC5314 assessed as inhibition of fungal filamentation by measuring reduction in hyphae formation in Lee medium upto 10 uM incubated for 3 to 5 days by stereomicroscopic analysis. It counts as functional, organism-based. To be noted: time 3-5 day.
Data set [7] concerns Candida albicans. In words: Antifungal activity against Candida albicans SC5314 assessed as inhibition of fungal growth incubated for 24 hrs by broth microdilution assay. The format is functional. (In general: In broth dilution the organism is exposed to a series of concentrations in liquid medium.)
The subject of data set [8] is Candida albicans. In words: Anti-virulence activity against Candida albicans SC5314 assessed as inhibition of fungal filamentation by measuring reduction in hyphae formation in YPS plus uridine medium upto 10 uM incubated for 3 to 5 days by stereomicroscopic analysis. The format is functional, organism-based. To be noted: time 3-5 day.
Data set [9] in a line: Toxicity in zebrafish embryos assessed as mortality treated at 6 hpf and measured at 120 hpf by stereomicroscopic analysis. Conditions: in vivo. Also on record: species or system Danio rerio.
Data set [10] has as its system Candida albicans. In words: Anti-virulence activity against Candida albicans SC5314 assessed as inhibition of fungal filamentation by measuring reduction of hyphae formation in Lee medium at 1.3 uM incubated for 3 to 5 days by stereomicroscopic analysis. The format is functional, organism-based. To be noted: time 3-5 day.
The subject of data set [11] is Candida albicans. In words: Anti-virulence activity against Candida albicans SC5314 assessed as inhibition of fungal filamentation by measuring reduction of hyphae formation in YPS medium at 1.3 uM incubated for 3 to 5 days by stereomicroscopic analysis. The format is functional, organism-based. To be noted: time 3-5 day.
Data set [12] in a line: Toxicity against zebrafish embryo infected with 53-75 RFP expressing cells of Candida albicans M137 assessed as mortality at 2.5 to 10 uM treated at 1 hr post-infection and measured on day 4 post-infection. Also on record: species or system Danio rerio. Conditions: 96 h, dose 2.5-10 µM, time 4 day.
Data set [13] deals with Candida albicans. In words: Anti-virulence activity against Candida albicans SC5314 assessed as inhibition of fungal filamentation by measuring reduction in hyphae formation in Spider medium upto 10 uM incubated for 3 to 5 days by stereomicroscopic analysis. The format is functional, organism-based. Conditions: time 3-5 day.
The test system of data set [14] is Candida albicans. In words: Anti-virulence activity against Candida albicans SC5314 assessed as inhibition of fungal filamentation by measuring reduction in hyphae formation in SLAD medium upto 10 uM incubated for 3 to 5 days by stereomicroscopic analysis. It counts as functional, organism-based. To be noted: time 3-5 day.
Data set [15] concerns Candida albicans. In words: Anti-virulence activity against Candida albicans SC5314 assessed as inhibition of fungal filamentation by measuring reduction of hyphae formation in SLAD medium at 1.3 uM incubated for 3 to 5 days by stereomicroscopic analysis. The format is functional, organism-based. Conditions: time 3-5 day.
Data set [16] deals with Candida albicans. In words: Anti-virulence activity against Candida albicans SC5314 assessed as inhibition of fungal filamentation by measuring reduction of hyphae formation in Spider medium at 1.3 uM incubated for 3 to 5 days by stereomicroscopic analysis. The format is functional, organism-based. To be noted: time 3-5 day.
Data set [17] has as its system Candida albicans. In words: Anti-virulence activity against Candida albicans SC5314 assessed as inhibition of fungal filamentation by measuring reduction of hyphae formation in RPMI medium at 1.3 uM incubated for 3 to 5 days by stereomicroscopic analysis. The format is functional, organism-based. To be noted: time 3-5 day.
In data set [18] the test system is Candida albicans. In words: Anti-virulence activity against Candida albicans SC5314 assessed as inhibition of fungal filamentation by measuring reduction of hyphae formation in RPMI medium upto 10 uM incubated for 3 to 5 days by stereomicroscopic analysis. The format is functional, organism-based. To be noted: time 3-5 day.
Data set [19] in a line: Cardiotoxicity in zebrafish embryos assessed as pericardial edema at 0.25 uM treated at 6 hpf and measured at 120 hpf by stereomicroscopic analysis. It counts as toxicity, Danio rerio.
A short description of data set [20]: Hepatotoxicity in zebrafish embryos assessed as liver failure by measuring necrotic and decreased liver with non-resorbed yolk at 0.25 uM treated at 6 hpf and measured at 120 hpf by stereomicroscopic analysis. The format is toxicity, tissue-based, Danio rerio. To be noted: in vivo.

Each structure is given as a SMILES string. Activity calls are given as the source filed them.

For orientation: inhibition in vivo means the share of the control response that was lost under treatment. By MIC is commonly meant the smallest concentration in the dilution series that meets the test's criterion for growth inhibition. Broadly, the LC50 is the concentration that kills 50% of the test population.

For `c1ccc(Nc2nnnn2CCC23CC4CC(CC(C4)C2)C3)cc1`, the result in the data set on Candida albicans [1], in the data set on Candida albicans [3], in the data set on Candida albicans [4], in the data set with Candida albicans [5], with Candida albicans [6] and in the data set on Candida albicans [8] was Active. Moreover, the outcome in the data set with Candida albicans [10], in the data set with Candida albicans [11], with Candida albicans [13], with Candida albicans [14], in the data set on Candida albicans [15] and with Candida albicans [16] was Active. The result in the data set on Candida albicans [17] and with Candida albicans [18] was Active. The inhibition in vivo at 10 µM in the data set with Candida albicans [2] amounted to 100%. The MIC in the data set on Candida albicans [7] was > 200 µM. The LC50 in data set [9] was > 200 µM. The Activity result in data set [12] is given as “Non-Toxic”.
For `CCC(C)n1ncn(-c2ccc(N3CCN(c4ccc(OCC5COC(Cn6cncn6)(c6ccc(Cl)cc6Cl)O5)cc4)CC3)cc2)c1=O` (stereo not given) [ITRACONAZOLE], the Activity result in data set [19] and in data set [20] was “Toxic” in each case.
